Data as given in ChEMBL document CHEMBL3046904, “Synthesis, characterization, bioactivity, and POM analyses of isothiochromeno[3,4-e][1,2]oxazines” (2013).

Assays:
Assay type in all cases: functional
SF-268 [1] = assay: Cytotoxicity against Homo sapiens (human) SF268 assessed as cell growth at 10^-4 M after 48 hr by Alamar Blue assay; settings: SF-268, 48 h, read-out: Activity
MCF7 [2] = assay: Cytotoxicity against Homo sapiens (human) MCF7 assessed as cell growth at 10^-4 M after 48 hr by Alamar Blue assay; settings: MCF7, 48 h, read-out: Activity
NCI-H460 [3] = assay: Cytotoxicity against Homo sapiens (human) NCI-H460 assessed as cell growth at 10^-4 M after 48 hr by Alamar Blue assay; settings: NCI-H460, 48 h, read-out: Activity
RXF 393 = assay: Cytotoxicity against Homo sapiens (human) RXF393 after 48 hr by Alamar Blue assay; settings: RXF 393, 48 h
SK-MEL-28 = assay: Cytotoxicity against Homo sapiens (human) SK-MEL-28 after 48 hr by Alamar Blue assay; settings: SK-MEL-28, 48 h
UACC-62 = assay: Cytotoxicity against Homo sapiens (human) UACC62 after 48 hr by Alamar Blue assay; settings: UACC-62, 48 h
NCI-H322M = assay: Cytotoxicity against Homo sapiens (human) NCI-H322M after 48 hr by Alamar Blue assay
TK-10 = assay: Cytotoxicity against Homo sapiens (human) TK10 after 48 hr by Alamar Blue assay; settings: TK-10, 48 h
Hs-578T = assay: Cytotoxicity against Homo sapiens (human) Hs 578T after 48 hr by Alamar Blue assay
SW-620 = assay: Cytotoxicity against Homo sapiens (human) SW620 after 48 hr by Alamar Blue assay; settings: SW-620, 48 h
A549 = assay: Cytotoxicity against Homo sapiens (human) A549 after 48 hr by Alamar Blue assay; settings: A549, 48 h
SN12C = assay: Cytotoxicity against Homo sapiens (human) SN12C after 48 hr by Alamar Blue assay
MDA-MB-231 = assay: Cytotoxicity against Homo sapiens (human) MDA-MB-231 after 48 hr by Alamar Blue assay; settings: MDA-MB-231, 48 h
UACC-257 = assay: Cytotoxicity against Homo sapiens (human) UACC257 after 48 hr by Alamar Blue assay; settings: UACC-257, 48 h
SF-268 [4] = assay: Cytotoxicity against Homo sapiens (human) SF268 after 48 hr by Alamar Blue assay; settings: SF-268, 48 h
COLO 205 = assay: Cytotoxicity against Homo sapiens (human) COLO205 after 48 hr by Alamar Blue assay; settings: COLO 205, 48 h
OVCAR-5 = assay: Cytotoxicity against Homo sapiens (human) OVCAR5 after 48 hr by Alamar Blue assay; settings: OVCAR-5, 48 h
DU-145 = assay: Cytotoxicity against Homo sapiens (human) DU145 after 48 hr by Alamar Blue assay; settings: DU-145, 48 h
OVCAR-8 = assay: Cytotoxicity against Homo sapiens (human) OVCAR8 after 48 hr by Alamar Blue assay; settings: OVCAR-8, 48 h
PC-3 = assay: Cytotoxicity against Homo sapiens (human) PC3 after 48 hr by Alamar Blue assay; settings: PC-3, 48 h
SR = assay: Cytotoxicity against Homo sapiens (human) SR after 48 hr by Alamar Blue assay
K562 = assay: Cytotoxicity against Homo sapiens (human) K562 after 48 hr by Alamar Blue assay; settings: K562, 48 h
OVCAR-4 = assay: Cytotoxicity against Homo sapiens (human) OVCAR4 after 48 hr by Alamar Blue assay; settings: OVCAR-4, 48 h
EKVX = assay: Cytotoxicity against Homo sapiens (human) EKVX after 48 hr by Alamar Blue assay
NCI-H460 [5] = assay: Cytotoxicity against Homo sapiens (human) NCI-H460 after 48 hr by Alamar Blue assay; settings: NCI-H460, 48 h
OVCAR-3 = assay: Cytotoxicity against Homo sapiens (human) OVCAR3 after 48 hr by Alamar Blue assay; settings: OVCAR-3, 48 h
HCT-15 = assay: Cytotoxicity against Homo sapiens (human) HCT15 after 48 hr by Alamar Blue assay; settings: HCT-15, 48 h
SF-295 = assay: Cytotoxicity against Homo sapiens (human) SF295 after 48 hr by Alamar Blue assay; settings: SF-295, 48 h
NCI-H23 = assay: Cytotoxicity against Homo sapiens (human) NCI-H23 after 48 hr by Alamar Blue assay; settings: NCI-H23, 48 h
NCI/ADR-RES = assay: Cytotoxicity against Homo sapiens (human) NCI/ADR-RES after 48 hr by Alamar Blue assay
MCF7 [6] = assay: Cytotoxicity against Homo sapiens (human) MCF7 after 48 hr by Alamar Blue assay; settings: MCF7, 48 h
RPMI-8226 = assay: Cytotoxicity against Homo sapiens (human) RPMI8226 after 48 hr by Alamar Blue assay; settings: RPMI-8226, 48 h
ACHN = assay: Cytotoxicity against Homo sapiens (human) ACHN after 48 hr by Alamar Blue assay
SK-MEL-5 = assay: Cytotoxicity against Homo sapiens (human) SK-MEL-5 after 48 hr by Alamar Blue assay; settings: SK-MEL-5, 48 h
HOP-62 = assay: Cytotoxicity against Homo sapiens (human) HOP62 after 48 hr by Alamar Blue assay; settings: HOP-62, 48 h
SF-539 = assay: Cytotoxicity against Homo sapiens (human) SF539 after 48 hr by Alamar Blue assay; settings: SF-539, 48 h
786-0 = assay: Cytotoxicity against Homo sapiens (human) 786-0 after 48 hr by Alamar Blue assay; settings: 786-0, 48 h
[7] = Cytotoxicity against Homo sapiens (human) HL-60(TB) after 48 hr by Alamar Blue assay; settings: HL-60, 48 h
LOX IMVI = assay: Cytotoxicity against Homo sapiens (human) LOXIMVI after 48 hr by Alamar Blue assay
HCT-116 = assay: Cytotoxicity against Homo sapiens (human) HCT116 after 48 hr by Alamar Blue assay; settings: HCT-116, 48 h
NCI-H226 = assay: Cytotoxicity against Homo sapiens (human) NCI-H226 after 48 hr by Alamar Blue assay; settings: NCI-H226, 48 h
Malme-3M = assay: Cytotoxicity against Homo sapiens (human) MALME-3M after 48 hr by Alamar Blue assay
SNB-19 = assay: Cytotoxicity against Homo sapiens (human) SNB19 after 48 hr by Alamar Blue assay; settings: SNB-19, 48 h
NCI-H522 = assay: Cytotoxicity against Homo sapiens (human) NCI-H522 after 48 hr by Alamar Blue assay; settings: NCI-H522, 48 h
CAKI-1 = assay: Cytotoxicity against Homo sapiens (human) Caki1 after 48 hr by Alamar Blue assay; settings: CAKI-1, 48 h
M14 = assay: Cytotoxicity against Homo sapiens (human) M14 after 48 hr by Alamar Blue assay; settings: M14, 48 h
HOP-92 = assay: Cytotoxicity against Homo sapiens (human) HOP92 after 48 hr by Alamar Blue assay; settings: HOP-92, 48 h
KM12 = assay: Cytotoxicity against Homo sapiens (human) KM12 after 48 hr by Alamar Blue assay; settings: KM12, 48 h
T47D = assay: Cytotoxicity against Homo sapiens (human) T47D after 48 hr by Alamar Blue assay
U-251 = assay: Cytotoxicity against Homo sapiens (human) U251 after 48 hr by Alamar Blue assay; settings: U-251, 48 h
A498 = assay: Cytotoxicity against Homo sapiens (human) A498 after 48 hr by Alamar Blue assay; settings: A498, 48 h
BT-549 = assay: Cytotoxicity against Homo sapiens (human) BT549 after 48 hr by Alamar Blue assay; settings: BT-549, 48 h
UO-31 = assay: Cytotoxicity against Homo sapiens (human) UO31 after 48 hr by Alamar Blue assay; settings: UO-31, 48 h
HT-29 = assay: Cytotoxicity against Homo sapiens (human) HT-29 after 48 hr by Alamar Blue assay; settings: HT-29, 48 h
MDA-MB-435 = assay: Cytotoxicity against Homo sapiens (human) MDA-MB-435 after 48 hr by Alamar Blue assay; settings: MDA-MB-435, 48 h
MOLT-4 = assay: Cytotoxicity against Homo sapiens (human) MOLT4 after 48 hr by Alamar Blue assay; settings: MOLT-4, 48 h
SK-MEL-2 = assay: Cytotoxicity against Homo sapiens (human) SK-MEL-2 after 48 hr by Alamar Blue assay; settings: SK-MEL-2, 48 h
IGROV-1 = assay: Cytotoxicity against Homo sapiens (human) IGROV1 after 48 hr by Alamar Blue assay; settings: IGROV-1, 48 h
HCC 2998 = assay: Cytotoxicity against Homo sapiens (human) HCC2998 after 48 hr by Alamar Blue assay; settings: HCC 2998, 48 h

Cc1ccc(C2=C3SC=c4ccccc4=C3ON=C2c2ccccc2)cc1
growth at 100 µM (SF-268 [1]): 69%
growth at 100 µM (MCF7 [2]): 41%
growth at 100 µM (NCI-H460 [3]): 94%

Cc1ccc(C2=NOC3=c4ccccc4=CSC3=C2c2ccc(C)cc2)cc1
GI50 (RXF 393): > 100 µM
GI50 (SK-MEL-28): > 100 µM
growth at 100 µM (SF-268 [1]): 91%
GI50 (UACC-62): > 100 µM
GI50 (NCI-H322M): > 100 µM
GI50 (TK-10): > 100 µM
GI50 (Hs-578T): > 100 µM
GI50 (SW-620): > 100 µM
GI50 (A549): > 100 µM
GI50 (SN12C): 20 µM
GI50 (MDA-MB-231): > 100 µM
GI50 (UACC-257): > 100 µM
GI50 (SF-268 [4]): > 100 µM
GI50 (COLO 205): > 100 µM
GI50 (OVCAR-5): > 100 µM
GI50 (DU-145): > 100 µM
GI50 (OVCAR-8): 40 µM
GI50 (PC-3): > 100 µM
GI50 (SR): 42 µM
GI50 (K562): 22.9 µM
GI50 (OVCAR-4): > 100 µM
GI50 (EKVX): > 100 µM
growth at 100 µM (MCF7 [2]): 36%
GI50 (NCI-H460 [5]): > 100 µM
GI50 (OVCAR-3): 94.8 µM
GI50 (HCT-15): > 100 µM
GI50 (SF-295): > 100 µM
GI50 (NCI-H23): > 100 µM
GI50 (NCI/ADR-RES): > 100 µM
GI50 (MCF7 [6]): > 100 µM
GI50 (RPMI-8226): 69.2 µM
GI50 (ACHN): > 100 µM
GI50 (SK-MEL-5): > 100 µM
GI50 (HOP-62): > 100 µM
GI50 (SF-539): > 100 µM
growth at 100 µM (NCI-H460 [3]): 93%
GI50 (786-0): > 100 µM
GI50 [7]: > 0.0001 µM
GI50 (LOX IMVI): > 100 µM
GI50 (HCT-116): 57.5 µM
GI50 (NCI-H226): > 100 µM
GI50 (Malme-3M): > 100 µM
GI50 (SNB-19): > 100 µM
GI50 (NCI-H522): 53.8 µM
GI50 (CAKI-1): > 100 µM
GI50 (M14): > 100 µM
GI50 (HOP-92): 68.1 µM
GI50 (KM12): > 100 µM
GI50 (T47D): 25.4 µM
GI50 (U-251): > 100 µM
GI50 (A498): > 100 µM
GI50 (BT-549): > 100 µM
GI50 (UO-31): > 100 µM
GI50 (HT-29): > 100 µM
GI50 (MDA-MB-435): > 100 µM
GI50 (MOLT-4): 37.1 µM
GI50 (SK-MEL-2): > 100 µM
GI50 (IGROV-1): > 100 µM
GI50 (HCC 2998): > 100 µM

COc1ccc(C2=NOC3=c4ccccc4=CSC3=C2c2ccc(C)cc2)cc1
growth at 100 µM (SF-268 [1]): 97%
growth at 100 µM (MCF7 [2]): 86%
growth at 100 µM (NCI-H460 [3]): 96%
